This is an account of results in ChEMBL document CHEMBL1146994, “Advances toward new antidepressants beyond SSRIs: 1-aryloxy-3-piperidinylpropan-2-ols with dual 5-HT1A receptor antagonism/SSRI activities. Part 5” (Bioorg Med Chem Lett, 2006).

Assay [1] concerns the target Sodium-dependent serotonin transporter (Rattus norvegicus) (UniProt P31652). Briefly: Receptor occupancy ex vivo by inhibition of [3H]paroxetine binding to 5HT reuptake site in Sprague-Dawley rat frontal cortex tissue at 30 mg/kg, po relative to control. It is filed as functional, organism-based. Also noted: dose 30 mg/kg.
Assay [2] addresses T1, 5-hydroxytryptamine receptor 1A (Rattus norvegicus) (UniProt P19327).
T1 sequence (whole entry): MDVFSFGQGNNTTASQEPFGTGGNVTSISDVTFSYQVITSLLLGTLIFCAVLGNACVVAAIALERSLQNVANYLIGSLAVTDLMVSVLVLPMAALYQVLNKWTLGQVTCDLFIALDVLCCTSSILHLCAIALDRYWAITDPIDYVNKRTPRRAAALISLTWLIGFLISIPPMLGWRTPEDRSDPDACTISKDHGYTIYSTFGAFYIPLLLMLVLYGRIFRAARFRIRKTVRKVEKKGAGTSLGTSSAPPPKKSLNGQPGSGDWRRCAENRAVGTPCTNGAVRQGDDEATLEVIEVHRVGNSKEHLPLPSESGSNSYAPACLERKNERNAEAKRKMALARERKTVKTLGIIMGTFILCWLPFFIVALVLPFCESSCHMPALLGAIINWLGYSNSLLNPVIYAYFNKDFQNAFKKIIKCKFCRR
Briefly: Receptor occupancy ex vivo by inhibition of [3H]8-OH-DPAT binding to 5HT1A receptor in Sprague-Dawley rat frontal cortex tissue at 30 mg/kg, po relative to control. The format is functional, organism-based. Also noted: dose 30 mg/kg.

The target of assay [3] is Sodium-dependent serotonin transporter (Homo sapiens, UniProt P31645). Briefly: Displacement of [3H]paroxetine from 5HT reuptake site. For orientation: In a radioligand displacement assay an active substance lowers the binding of a labelled ligand.
Assay [4] relates to Rattus norvegicus. Briefly: Ability to block PCA-induced depletion of 5HT concentration in sc dosed rat brain after 2 hrs. The format is functional.
Assay [5] deals with Rattus norvegicus. In words: Increase in 5HT level in Sprague-Dawley rat hypothalamus by microdialysis at 30 mg/kg, po (basal value set at 100%). The format is functional.
Assay [6] has as its system Rattus norvegicus. Briefly: Increase in 5HT level in Sprague-Dawley rat hypothalamus by microdialysis at 10 mg/kg, ip (basal value set at 100%). It is filed as functional. The conditions noted are these: route intraperitoneal.
The test system of assay [7] is Rattus norvegicus. Briefly: Reduction of serotonergic neuron level in dorsal raphe nucleus of anesthetized rat after 3 days of sub-chronic administration at 10 mg/kg/day. The format is functional, organism-based.
The test system of assay [8] is Rattus norvegicus. In words: Ability to block 8-OH-DPAT-induced increase of corticosterone in po dosed rat serum after 1 hr. It is filed as functional.
For assay [9], the system named is Rattus norvegicus. In words: Ability to block PCA-induced depletion of 5HT concentration in po dosed rat brain after 2 hrs. The format is functional.
Assay [10] relates to Rattus norvegicus. Briefly: Increase in 5HT level in Sprague-Dawley rat hypothalamus by microdialysis at 20 mg/kg, po (basal value set at 100%). The format is functional.
Assay [11] concerns Rattus norvegicus. In words: Ability to block 8-OH-DPAT-induced increase of corticosterone in sc dosed rat serum after 1 hr. The format is functional.
The test system of assay [12] is Rattus norvegicus. In words: Increase in 5HT level in Sprague-Dawley rat hypothalamus by microdialysis at 20 mg/kg, sc (basal value set at 100%). It is filed as functional. The conditions noted are these: route subcutaneous.
Assay [13] has as its system Rattus norvegicus. In words: Increase in 5HT level in Sprague-Dawley rat hypothalamus by microdialysis at 10 mg/kg, po (basal value set at 100%). It is filed as functional.

Active and inactive are the calls of the source. No cut-off for these calls is given here.

One may read the inhibition as the drop in the measured response relative to a control, in per cent. Broadly, the Ki is a dissociation constant, usually derived from enzyme kinetics or from competition with a known ligand. Low readings indicate tighter binding, high ones weaker binding. In general, ED50 refers to the midpoint of the dose-response relation.

Sodium-dependent serotonin transporter (Rattus norvegicus), sequence (P31652 whole entry): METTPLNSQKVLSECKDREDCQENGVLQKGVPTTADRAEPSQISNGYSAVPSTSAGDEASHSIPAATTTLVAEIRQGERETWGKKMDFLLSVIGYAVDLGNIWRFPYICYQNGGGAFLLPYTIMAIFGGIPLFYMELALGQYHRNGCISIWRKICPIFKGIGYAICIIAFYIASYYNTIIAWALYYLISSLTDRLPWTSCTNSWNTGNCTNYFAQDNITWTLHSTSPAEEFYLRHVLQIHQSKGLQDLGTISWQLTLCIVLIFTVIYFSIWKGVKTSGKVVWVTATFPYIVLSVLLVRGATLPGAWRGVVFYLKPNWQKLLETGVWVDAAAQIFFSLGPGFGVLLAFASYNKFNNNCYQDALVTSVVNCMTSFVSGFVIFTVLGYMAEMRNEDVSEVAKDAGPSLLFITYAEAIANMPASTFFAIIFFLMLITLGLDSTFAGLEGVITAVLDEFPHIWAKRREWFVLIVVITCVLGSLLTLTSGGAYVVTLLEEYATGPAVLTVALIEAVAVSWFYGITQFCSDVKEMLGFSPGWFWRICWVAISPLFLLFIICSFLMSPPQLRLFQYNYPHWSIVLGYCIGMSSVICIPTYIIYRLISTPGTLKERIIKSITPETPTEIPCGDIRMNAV
Sodium-dependent serotonin transporter, sequence (P31645 whole entry): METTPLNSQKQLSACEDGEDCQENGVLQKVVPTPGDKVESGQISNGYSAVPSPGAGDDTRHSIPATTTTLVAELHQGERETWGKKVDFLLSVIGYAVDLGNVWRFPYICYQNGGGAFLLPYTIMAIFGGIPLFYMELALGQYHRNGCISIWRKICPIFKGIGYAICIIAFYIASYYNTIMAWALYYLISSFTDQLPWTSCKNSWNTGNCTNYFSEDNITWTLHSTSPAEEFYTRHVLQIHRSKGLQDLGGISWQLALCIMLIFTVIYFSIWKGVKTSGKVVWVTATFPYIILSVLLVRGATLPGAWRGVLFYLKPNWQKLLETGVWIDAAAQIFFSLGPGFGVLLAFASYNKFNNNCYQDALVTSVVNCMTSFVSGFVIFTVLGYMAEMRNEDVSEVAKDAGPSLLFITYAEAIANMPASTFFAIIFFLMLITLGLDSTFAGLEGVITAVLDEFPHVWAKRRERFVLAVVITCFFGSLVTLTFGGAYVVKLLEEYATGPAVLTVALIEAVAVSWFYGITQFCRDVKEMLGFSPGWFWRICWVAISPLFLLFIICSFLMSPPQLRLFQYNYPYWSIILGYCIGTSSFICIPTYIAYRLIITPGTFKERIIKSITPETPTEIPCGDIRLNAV

On to `O[C@H](COc1cccc2[nH]ccc12)CN1CCC(c2cc3ccccc3s2)CC1`, for which the inhibition in assay [1] is 80%; in assay [2], 6%. Also, in assay [3], the affinity corresponds to a Ki of 16.7 nM.
Compound `COc1ccc2cc([C@@H]3CCN(C[C@H](O)COc4cccc5[nH]ccc45)[C@@H](C)C3)sc2c1` showed an ED50 in the assay with Rattus norvegicus [4] of 1.07 mg/kg. The inhibition was 29% in [1] and 14% in assay [2]. The Activity in the assay with Rattus norvegicus [5] was found to be 140%. Besides, in assay [3], the Ki came to 1.1 nM.
`CNCCC(Oc1ccc(C(F)(F)F)cc1)c1ccccc1` (stereo not drawn) [FLUOXETINE]: the Activity with Rattus norvegicus [6] was found to be 160%. The outcome in the assay with Rattus norvegicus [7] was Active.
As for `COc1cccc2sc([C@H]3CCN(C[C@H](O)COc4cccc5[nH]ccc45)[C@@H](C)C3)cc12`, the results for the inhibition in [1] and in assay [2] were 88% and 40%, respectively. In assay [3], the Ki is 13.6 nM.
Take `Cc1cc2c(OC[C@@H](O)CN3CC[C@@H](c4cc5cc(F)ccc5s4)C[C@@H]3C)cccc2[nH]1`: the inhibition in [1] stood at 30%; in assay [2], 6%. In addition, the Activity in the assay with Rattus norvegicus [5] came to 315%. In [3], this compound had a Ki of 0.24 nM.
With `Cc1cccc2sc([C@@H]3CCN(C[C@H](O)COc4cccc5[nH]ccc45)[C@@H](C)C3)cc12`, the values for the ED50 with Rattus norvegicus [8] and with Rattus norvegicus [9] were more than 30 mg/kg and 1.65 mg/kg, respectively. Further, the inhibition in assay [1] was 9%; in assay [2], 20%. Besides, the Activity in the assay on Rattus norvegicus [5] is listed as 210%. Also, in [3], the Ki was 0.44 nM.
Regarding `COc1cccc2sc([C@@H]3CCN(C[C@H](O)COc4cccc5[nH]ccc45)[C@@H](C)C3)cc12`, the results for the ED50 in the assay on Rattus norvegicus [8] and in the assay on Rattus norvegicus [9] were 21.1 mg/kg and 3.71 mg/kg, respectively. In addition, the inhibition in assay [1] was determined as 11%; in assay [2] it was 13%. The same compound showed an Activity with Rattus norvegicus [5] of 368%. In assay [3], this compound came in with an inhibition constant (Ki) of 0.27 nM.
`COc1cccc2sc(C3CCN(C[C@H](O)COc4cccc5[nH]ccc45)CC3)cc12`: the inhibition in assay [1] was 100%; in [2], 4%. The same compound registered a Ki in [3] of 12.6 nM.
`COc1cccc2sc(C3CCN(C[C@H](O)COc4cccc5[nH]c(C)cc45)CC3)cc12` came in with an inhibition constant Ki in assay [3] of 51.2 nM.
Consider `C[C@H]1C[C@H](c2cc3cc(Cl)ccc3s2)CCN1C[C@H](O)COc1cccc2[nH]ccc12`, for which the results for the 50% effective dose (ED50) with Rattus norvegicus [8] and in the assay with Rattus norvegicus [9] were 26 mg/kg and 3.65 mg/kg, respectively. Moreover, the inhibition in assay [1] was 39%; in assay [2], 47%. Further, affinity in assay [3] was put at a Ki of 0.58 nM. The Activity in the assay on Rattus norvegicus [10] was found to be 287%.
`C[C@H]1C[C@H](c2cc3ccccc3s2)CCN1C[C@H](O)COc1cccc2[nH]ccc12`: the results for the ED50 with Rattus norvegicus [11] and in the assay with Rattus norvegicus [4] were 2.83 mg/kg and 0.28 mg/kg, respectively. The inhibition is -2% in [1] and 1% in [2]. The same compound came in with an Activity with Rattus norvegicus [12] of 264%. The compound also registered a Ki in [3] of 0.51 nM.
Regarding `COc1cccc2sc([C@@H]3CCN(C[C@H](O)COc4cccc5[nH]ccc45)[C@H](C)C3)cc12`, the inhibition in assay [1] was 70%; in [2], 28%.
Take `COc1cccc2sc([C@@H]3CCN(C[C@H](O)COc4cccc5[nH]c(C)cc45)[C@@H](C)C3)cc12`: the 50% effective dose (ED50) came out at 3.2 mg/kg in the assay on Rattus norvegicus [8] and 3.79 mg/kg in the assay on Rattus norvegicus [9]. Also, the Activity with Rattus norvegicus [13] came out at 713%. The inhibition was 26% in assay [1] and -3% in assay [2]. Besides, in the assay on Rattus norvegicus [7], the result was inactive.
For `O[C@H](COc1cccc2[nH]ccc12)CN1CCC(c2cc3ccc(F)cc3s2)CC1`, the inhibition in [1] came out at 13%; in assay [2], 9%. The compound also showed an Activity in the assay with Rattus norvegicus [5] of 130%. Also, in assay [3], affinity was put at a Ki of 1.99 nM.
Take `C[C@H]1C[C@H](c2cc3ccc(F)cc3s2)CCN1C[C@H](O)COc1cccc2[nH]ccc12`: the ED50 in the assay with Rattus norvegicus [11] was 5.08 mg/kg; with Rattus norvegicus [8] it was more than 30 mg/kg; in the assay with Rattus norvegicus [9], 0.69 mg/kg. The inhibition worked out at 8% in assay [1] and 23% in assay [2]. This compound returned an Activity with Rattus norvegicus [5] of 479%. Besides, the affinity in assay [3], expressed as Ki, was 0.31 nM.
The compound `Cc1cc2c(OC[C@@H](O)CN3CC[C@@H](c4cc5ccccc5s4)C[C@@H]3C)cccc2[nH]1` gave an Activity in the assay on Rattus norvegicus [13] of 119%. The inhibition in assay [1] turned out to be 17%; in [2], 5%.
As to `COc1cccc2sc([C@H]3CCN(C[C@H](O)COc4cccc5[nH]ccc45)[C@H](C)C3)cc12`, the ED50 with Rattus norvegicus [8] was more than 30 mg/kg; with Rattus norvegicus [9], more than 10 mg/kg. Besides, the inhibition in assay [1] came out at 8%; in assay [2], 33%. This compound displayed a Ki in [3] of 1.15 nM. Also, the Activity in the assay with Rattus norvegicus [10] was determined as 330%.
